Assay results: patent US8268893B2, “Use of dapsone as a neuroprotector in cerebral infarction” (Universidad Autonoma Metropolitana, priority 2003, dated 2012)
Several values for one entry are separate records, joined by “and”; a condition that tells them apart may be missing. Identical values can stand only once.

What was measured:
[1] = Stability of dapsone oral suspension; format: physicochemical; settings: refrigeration at 4° C.
[2] = tested on: patients with acute brain stroke for thrombo-embolism; assay: Randomized, double-blind, placebo-controlled clinical trial in patients with acute brain stroke, NIH scale; format: in vivo, human
Method: This study evaluated the neuroprotector effect of dapsone in patients that, having suffered an acute brain stroke for thrombo-embolism, were admitted to the Emergency Services of the National Institute of Neurology and Neurosurgery “Manuel Velasco Suarez”. Dapsone was administered in a single dose of 200 mg in suspension, orally. […] Dapsone was administered blinded to 15 patients, while other 15 patients were administered with an anti-acid suspension, as a placebo medication. Patients were randomly allocated into one of the treatment groups, using random numbers, generated by a pocket calculator. Both medications were administered during the first twelve hours after the brain stroke. As result of these procedures, the clinical trial was randomized, double-blind and placebo-controlled. The evaluation of clinical signs and symptoms was performed in blind by an expert neurologist, with the NIH scale, that quantifies the intensity of disabilities caused by the brain stroke. Said scale was applied at the time the patient entered the study (day zero) and 2, 6 and 30 days after the brain stroke. A stroke is considered as moderately severe or severe, when the NIH rated a value higher than seven. The NIH scale results in the two groups of patients were statistically analyzed with analysis of variance analysis (ANOVA) using as co-variables the NIH scale at the admittance day (day zero), as well as the gender, age, blood pressure and other important clinical variables for the patient's performance. The results in patients with acute thrombo-embolic brain stroke, are shown in FIG. 3, which presents the scores of the neurological scale (NIH) as a function of time (in days) after administering dapsone or the placebo. The results are expressed as the average of 15 patients per group +/−the standard error.

[3] = tested on: brain stroke model produced by occlusion of the middle cerebral artery; assay: Neurological functional scale in rats after permanent occlusion of the middle cerebral artery; format: in vivo, rat
Method: Dapsone was evaluated as neuroprotector in the brain stroke model produced by occlusion of the middle cerebral artery. The drug was suspended in a suitable vehicle.
3 groups of 5 animals each were treated with: Saline isotonic solution (551, control group), Dapsone (12.5 mg/kg) and Dapsone (9.375 mg/kg) injected by intraperitoneal route, 30 minutes after the occlusion of the middle cerebral artery, as described below.
The permanent selective brain ischemic was produced in the animals through introducing a suture thread intraluminal through the carotid artery. All animals received continuous anesthesia during the surgical procedure with halotane 1.5%, through a face mask. […]
During the 96 hours after the ischemic procedure, the animals were neurologically evaluated using a functional scale, each 24 hours.
For the neurological scale and percentage of the lesion volume in rats, the statistical significance was determined with the Kruskal-Wallis test, followed by the U test of MannWhitney.
The results of the neurological evaluation in rats are shown in FIG. 1, where the scores of the neurological test as a function of time can be observed, after producing the stroke in the rats. The results are expressed as the average of 4 independent experiments. […]

[4] = tested on: brain stroke model produced by occlusion of the middle cerebral artery; assay: Ischemic lesion volume (histology) in rats 96 hours after occlusion of the middle cerebral artery; format: in vivo, rat; settings: for reduction of ischemic lesion volume in comparison with the control group: 96 hours
Method: Dapsone was evaluated as neuroprotector in the brain stroke model produced by occlusion of the middle cerebral artery. The drug was suspended in a suitable vehicle. 3 groups of 5 animals each were treated with: Saline isotonic solution (551, control group), Dapsone (12.5 mg/kg) and Dapsone (9.375 mg/kg) injected by intraperitoneal route, 30 minutes after the occlusion of the middle cerebral artery, as described below. The permanent selective brain ischemic was produced in the animals through introducing a suture thread intraluminal through the carotid artery. All animals received continuous anesthesia during the surgical procedure with halotane 1.5%, through a face mask. Animals were placed in dorsal decubitus position, fixed and shaved in the anterior cervical region to make an incision in the middle line from the sternum towards the region of the sternohiodeous muscle, to its side rim, identifying in this side the middle rim of the sternocleidomastoideus and the superficial cervical aponeurosis in its deep leaf, same that was cut to leave exposed the common carotid blow and inside the caudal belly of the digastric. A cutting dissection of the common carotid was performed, until the hypoglose loop. The carotid bifurcation was identified, external carotid and its occipital and thyroid branches, the two latter were joined with mono-filament of 8-0 as well as with electrocoagulation for its later cut. The internal carotid was dissected in a length of approximately 5 mm and at that time the pterigo-palatine artery was identified. A microchip was placed or it was joined with mono-filament 6-0. Once the flux was stopped through these artery affluent, the mono-filament nylon 3-0 was introduced towards the internal carotid artery, through the stub of the external carotid artery, for a length of 17 mm as of the bifurcation. The wound was closed, and the animal was left to recover, with water and food ad libitum. In all cases, ischemia was verified by macroscopic observation and for the position of the thread. At the end of the 96 hours of observation, animals were sacrificed with an overdose of sodium pentobarbital by intraperitoneal route, and their brains were extracted by craniectomy. Once extracted, the brains were fixed with anhydrous alcohol during two weeks. The usual histological process was performed, as well as sections of 10 μm, storing a section each 200 μm. […] The area of each tissue section was determined using a digital analysis system and a photographic amplifier. […] Each section was assessed for 3 determinations: A) total area, including ventriculus B) Ventricular area C) Ischemic area, according to the pathologist's review. […] The results are expressed as the average+/-standard error of 4 independent experiments.

## Nc1ccc(S(=O)(=O)c2ccc(N)cc2)cc1 [dapsone]
[1]
  stability of the suspension: stable in refrigeration at 4° C., for up to one month
[2]; for the dose used
  side effects: No side effects
[2]; model not stated, printed after the patient result
  effective dose: 0.013 mmol/kg
[2]; patients, 200 mg orally
  clinical improvement (in words): significant clinical improvement
[2]; patients, single 200 mg oral dose within first twelve hours after stroke
  clinical improvement of neurological symptoms (NIH scale), in average: 67%
[3]
  reduction in the severity of the neurological symptoms in comparison with the control group: 50%
[3]; 9.375 and 12.5 mg/kg ip, evaluated each 24 hours for 96 hours, p<0.05
  recovery from the ischemic lesion in the neurological test compared to the control group: recovered better from the ischemic lesion, significantly
[4]; 9.375 mg/kg ip 30 minutes after occlusion
  reduction of ischemic lesion volume in comparison with the control group: 93%
[4]; 12.5 mg/kg ip 30 minutes after occlusion, 12.5 mg/kg
  reduction of ischemic lesion volume in comparison with the control group: 91% and 90%
[4]; dose of 9.325 mg/kg
  efficacy to reduce the volume of brain damage produced by the stroke: 93%
